Results taken from ChEMBL document CHEMBL1150977, “A quantitative analysis of kinase inhibitor selectivity” (Nat Biotechnol, 2008).

Columns and labels:
[1] = target: Ribosomal protein S6 kinase alpha-5 (Homo sapiens, UniProt O75582)
[2] = target: Proto-oncogene tyrosine-protein kinase ROS (Homo sapiens, UniProt P08922)
[3] = target: Proto-oncogene tyrosine-protein kinase receptor Ret (Homo sapiens, UniProt P07949, M918T)
[4] = target: T1, Serine/threonine-protein kinase DCLK3 (Homo sapiens, UniProt Q9C098)
T1 sequence (Q9C098 whole entry): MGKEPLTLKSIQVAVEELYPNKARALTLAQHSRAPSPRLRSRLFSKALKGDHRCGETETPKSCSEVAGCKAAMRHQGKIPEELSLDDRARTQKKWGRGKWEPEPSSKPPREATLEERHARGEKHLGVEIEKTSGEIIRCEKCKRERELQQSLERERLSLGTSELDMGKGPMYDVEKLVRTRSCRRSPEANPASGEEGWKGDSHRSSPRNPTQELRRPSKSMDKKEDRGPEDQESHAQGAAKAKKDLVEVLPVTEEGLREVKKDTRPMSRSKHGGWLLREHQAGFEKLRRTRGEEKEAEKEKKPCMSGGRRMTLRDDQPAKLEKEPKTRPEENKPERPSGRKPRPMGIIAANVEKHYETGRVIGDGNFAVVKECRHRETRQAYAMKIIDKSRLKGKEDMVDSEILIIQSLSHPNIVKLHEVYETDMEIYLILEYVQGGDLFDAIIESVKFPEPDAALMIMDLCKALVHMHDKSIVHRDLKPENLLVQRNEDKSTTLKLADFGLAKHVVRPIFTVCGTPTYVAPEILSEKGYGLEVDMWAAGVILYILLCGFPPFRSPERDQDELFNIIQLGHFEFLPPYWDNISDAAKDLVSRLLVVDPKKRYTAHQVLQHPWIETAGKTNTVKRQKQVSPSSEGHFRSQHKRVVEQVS

Wee1-like protein kinase = Wee1-like protein kinase (Homo sapiens, UniProt P30291)
[5] = target: Tyrosine-protein kinase ABL2 (Homo sapiens, UniProt P42684)
[6] = target: T2, Serine/threonine-protein kinase 4 (Homo sapiens, UniProt Q13043)
T2 sequence (Q13043 whole entry): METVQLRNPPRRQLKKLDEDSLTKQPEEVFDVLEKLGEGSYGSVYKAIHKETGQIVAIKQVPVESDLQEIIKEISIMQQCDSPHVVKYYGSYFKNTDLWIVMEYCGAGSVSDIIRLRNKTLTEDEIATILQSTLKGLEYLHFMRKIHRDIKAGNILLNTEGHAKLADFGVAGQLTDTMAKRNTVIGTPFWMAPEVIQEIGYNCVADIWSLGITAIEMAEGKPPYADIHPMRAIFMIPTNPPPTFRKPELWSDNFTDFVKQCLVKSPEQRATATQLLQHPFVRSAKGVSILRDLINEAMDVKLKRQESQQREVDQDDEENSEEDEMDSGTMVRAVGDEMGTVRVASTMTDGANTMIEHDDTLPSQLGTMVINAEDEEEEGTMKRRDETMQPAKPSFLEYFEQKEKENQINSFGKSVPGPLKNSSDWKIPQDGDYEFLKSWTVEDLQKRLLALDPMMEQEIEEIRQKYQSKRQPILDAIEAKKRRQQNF

[7] = target: Phosphorylase b kinase gamma catalytic chain, skeletal muscle/heart isoform (Homo sapiens, UniProt Q16816)
[8] = target: Calcium/calmodulin-dependent protein kinase type II subunit beta (Homo sapiens, UniProt Q13554)
[9] = target: Serine/threonine-protein kinase 24 (Homo sapiens, UniProt Q9Y6E0)
[10] = target: Tyrosine-protein kinase ABL1 (Homo sapiens, UniProt P00519, Y253F)
[11] = target: Serine/threonine-protein kinase SIK1 (Homo sapiens, UniProt P57059)
[12] = target: T3, Calcium/calmodulin-dependent protein kinase type IV (Homo sapiens, UniProt Q16566)
T3 sequence (Q16566 whole entry): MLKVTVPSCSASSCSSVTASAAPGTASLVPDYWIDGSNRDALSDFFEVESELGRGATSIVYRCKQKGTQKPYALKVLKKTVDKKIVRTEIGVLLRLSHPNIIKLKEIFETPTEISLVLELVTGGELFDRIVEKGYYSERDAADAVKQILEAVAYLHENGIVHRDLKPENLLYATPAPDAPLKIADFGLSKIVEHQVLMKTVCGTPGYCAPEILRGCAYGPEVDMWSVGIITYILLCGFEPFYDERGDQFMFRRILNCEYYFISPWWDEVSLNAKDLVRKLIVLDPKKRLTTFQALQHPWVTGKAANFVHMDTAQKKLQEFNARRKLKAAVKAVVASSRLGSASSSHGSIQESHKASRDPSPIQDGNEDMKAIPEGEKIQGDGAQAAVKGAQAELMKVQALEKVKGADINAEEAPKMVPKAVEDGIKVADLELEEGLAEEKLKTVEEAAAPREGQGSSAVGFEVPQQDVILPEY

[13] = target: Myosin light chain kinase 2, skeletal/cardiac muscle (Homo sapiens, UniProt Q9H1R3)
[14] = target: BMP-2-inducible protein kinase (Homo sapiens, UniProt Q9NSY1)
Sequence of BMP-2-inducible protein kinase (Q9NSY1 whole entry): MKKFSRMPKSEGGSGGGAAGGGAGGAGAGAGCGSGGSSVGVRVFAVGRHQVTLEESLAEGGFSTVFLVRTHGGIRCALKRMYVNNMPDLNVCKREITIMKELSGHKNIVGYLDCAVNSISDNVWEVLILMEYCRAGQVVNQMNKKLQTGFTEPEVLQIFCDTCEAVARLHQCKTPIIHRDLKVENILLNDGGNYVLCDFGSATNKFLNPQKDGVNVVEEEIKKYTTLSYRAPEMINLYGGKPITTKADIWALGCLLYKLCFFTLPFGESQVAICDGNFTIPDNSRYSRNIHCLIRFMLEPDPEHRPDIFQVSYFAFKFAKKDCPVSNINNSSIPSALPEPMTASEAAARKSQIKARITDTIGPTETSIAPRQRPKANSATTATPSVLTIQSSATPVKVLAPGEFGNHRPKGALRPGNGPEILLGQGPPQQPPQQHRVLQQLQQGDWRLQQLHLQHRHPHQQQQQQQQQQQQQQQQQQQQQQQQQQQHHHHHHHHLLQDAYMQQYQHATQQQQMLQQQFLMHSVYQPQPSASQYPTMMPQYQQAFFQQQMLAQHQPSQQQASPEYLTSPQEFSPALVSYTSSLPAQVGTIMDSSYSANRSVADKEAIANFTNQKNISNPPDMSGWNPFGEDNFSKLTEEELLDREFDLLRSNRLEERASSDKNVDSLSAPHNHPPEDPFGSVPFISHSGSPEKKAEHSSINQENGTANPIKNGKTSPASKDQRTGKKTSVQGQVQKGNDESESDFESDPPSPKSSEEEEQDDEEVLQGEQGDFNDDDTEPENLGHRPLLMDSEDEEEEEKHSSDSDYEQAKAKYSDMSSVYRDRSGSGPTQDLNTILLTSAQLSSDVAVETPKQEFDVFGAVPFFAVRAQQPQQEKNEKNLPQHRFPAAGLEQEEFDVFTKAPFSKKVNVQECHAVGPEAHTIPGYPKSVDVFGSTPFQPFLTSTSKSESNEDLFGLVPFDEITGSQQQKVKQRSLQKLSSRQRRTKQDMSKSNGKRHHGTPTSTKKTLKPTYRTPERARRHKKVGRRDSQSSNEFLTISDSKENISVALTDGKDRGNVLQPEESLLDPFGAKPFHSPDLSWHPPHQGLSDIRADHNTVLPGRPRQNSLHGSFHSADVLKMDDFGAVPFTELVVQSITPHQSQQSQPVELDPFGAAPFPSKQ

[15] = target: Dual specificity protein kinase CLK2 (Homo sapiens, UniProt P49760)
Sequence of Dual specificity protein kinase CLK2 (P49760 whole entry): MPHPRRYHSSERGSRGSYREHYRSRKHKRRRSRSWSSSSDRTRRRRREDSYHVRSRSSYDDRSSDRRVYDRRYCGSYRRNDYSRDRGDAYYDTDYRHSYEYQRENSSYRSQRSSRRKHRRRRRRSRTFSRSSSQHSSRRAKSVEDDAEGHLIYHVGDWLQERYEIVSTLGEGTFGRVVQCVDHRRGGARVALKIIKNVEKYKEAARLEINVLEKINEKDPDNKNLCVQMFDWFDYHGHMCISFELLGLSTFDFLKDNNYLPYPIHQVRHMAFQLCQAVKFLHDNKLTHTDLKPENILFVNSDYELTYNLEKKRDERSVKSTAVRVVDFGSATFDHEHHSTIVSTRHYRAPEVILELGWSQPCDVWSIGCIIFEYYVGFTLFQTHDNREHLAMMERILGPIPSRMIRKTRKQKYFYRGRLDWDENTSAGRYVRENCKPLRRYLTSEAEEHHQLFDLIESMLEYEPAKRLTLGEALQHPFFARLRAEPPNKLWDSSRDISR

[16] = target: Receptor tyrosine-protein kinase erbB-2 (Homo sapiens, UniProt P04626)

Sequence of Proto-oncogene tyrosine-protein kinase receptor Ret (P07949 29-1114 M918T limits assumed): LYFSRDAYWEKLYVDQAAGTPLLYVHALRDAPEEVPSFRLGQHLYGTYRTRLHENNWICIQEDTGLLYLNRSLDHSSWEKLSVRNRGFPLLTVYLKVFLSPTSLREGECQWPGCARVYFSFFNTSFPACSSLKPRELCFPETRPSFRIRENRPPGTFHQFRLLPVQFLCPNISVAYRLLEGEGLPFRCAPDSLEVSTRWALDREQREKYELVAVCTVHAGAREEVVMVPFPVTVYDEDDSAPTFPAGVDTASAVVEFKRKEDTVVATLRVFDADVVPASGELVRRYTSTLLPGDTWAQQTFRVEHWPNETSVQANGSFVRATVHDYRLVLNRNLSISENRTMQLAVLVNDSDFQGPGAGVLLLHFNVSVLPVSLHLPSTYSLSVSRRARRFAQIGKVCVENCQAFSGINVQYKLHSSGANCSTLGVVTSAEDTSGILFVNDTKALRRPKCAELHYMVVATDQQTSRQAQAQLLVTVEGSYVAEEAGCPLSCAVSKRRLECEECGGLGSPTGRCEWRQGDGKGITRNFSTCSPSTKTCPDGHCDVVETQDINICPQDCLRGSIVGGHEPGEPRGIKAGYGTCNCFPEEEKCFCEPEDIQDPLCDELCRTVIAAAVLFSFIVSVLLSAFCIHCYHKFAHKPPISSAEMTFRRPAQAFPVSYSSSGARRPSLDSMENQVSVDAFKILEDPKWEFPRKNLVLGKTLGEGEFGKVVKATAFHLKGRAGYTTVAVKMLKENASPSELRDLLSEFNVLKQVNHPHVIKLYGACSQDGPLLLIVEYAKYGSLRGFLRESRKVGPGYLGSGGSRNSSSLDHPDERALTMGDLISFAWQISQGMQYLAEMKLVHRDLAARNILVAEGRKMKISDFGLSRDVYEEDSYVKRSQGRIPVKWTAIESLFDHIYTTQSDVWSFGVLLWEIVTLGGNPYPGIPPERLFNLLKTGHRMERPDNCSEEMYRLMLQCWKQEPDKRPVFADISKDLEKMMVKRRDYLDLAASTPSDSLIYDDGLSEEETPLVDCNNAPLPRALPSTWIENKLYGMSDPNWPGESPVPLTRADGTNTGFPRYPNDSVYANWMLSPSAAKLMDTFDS
Sequence of Proto-oncogene tyrosine-protein kinase ROS (P08922 whole entry): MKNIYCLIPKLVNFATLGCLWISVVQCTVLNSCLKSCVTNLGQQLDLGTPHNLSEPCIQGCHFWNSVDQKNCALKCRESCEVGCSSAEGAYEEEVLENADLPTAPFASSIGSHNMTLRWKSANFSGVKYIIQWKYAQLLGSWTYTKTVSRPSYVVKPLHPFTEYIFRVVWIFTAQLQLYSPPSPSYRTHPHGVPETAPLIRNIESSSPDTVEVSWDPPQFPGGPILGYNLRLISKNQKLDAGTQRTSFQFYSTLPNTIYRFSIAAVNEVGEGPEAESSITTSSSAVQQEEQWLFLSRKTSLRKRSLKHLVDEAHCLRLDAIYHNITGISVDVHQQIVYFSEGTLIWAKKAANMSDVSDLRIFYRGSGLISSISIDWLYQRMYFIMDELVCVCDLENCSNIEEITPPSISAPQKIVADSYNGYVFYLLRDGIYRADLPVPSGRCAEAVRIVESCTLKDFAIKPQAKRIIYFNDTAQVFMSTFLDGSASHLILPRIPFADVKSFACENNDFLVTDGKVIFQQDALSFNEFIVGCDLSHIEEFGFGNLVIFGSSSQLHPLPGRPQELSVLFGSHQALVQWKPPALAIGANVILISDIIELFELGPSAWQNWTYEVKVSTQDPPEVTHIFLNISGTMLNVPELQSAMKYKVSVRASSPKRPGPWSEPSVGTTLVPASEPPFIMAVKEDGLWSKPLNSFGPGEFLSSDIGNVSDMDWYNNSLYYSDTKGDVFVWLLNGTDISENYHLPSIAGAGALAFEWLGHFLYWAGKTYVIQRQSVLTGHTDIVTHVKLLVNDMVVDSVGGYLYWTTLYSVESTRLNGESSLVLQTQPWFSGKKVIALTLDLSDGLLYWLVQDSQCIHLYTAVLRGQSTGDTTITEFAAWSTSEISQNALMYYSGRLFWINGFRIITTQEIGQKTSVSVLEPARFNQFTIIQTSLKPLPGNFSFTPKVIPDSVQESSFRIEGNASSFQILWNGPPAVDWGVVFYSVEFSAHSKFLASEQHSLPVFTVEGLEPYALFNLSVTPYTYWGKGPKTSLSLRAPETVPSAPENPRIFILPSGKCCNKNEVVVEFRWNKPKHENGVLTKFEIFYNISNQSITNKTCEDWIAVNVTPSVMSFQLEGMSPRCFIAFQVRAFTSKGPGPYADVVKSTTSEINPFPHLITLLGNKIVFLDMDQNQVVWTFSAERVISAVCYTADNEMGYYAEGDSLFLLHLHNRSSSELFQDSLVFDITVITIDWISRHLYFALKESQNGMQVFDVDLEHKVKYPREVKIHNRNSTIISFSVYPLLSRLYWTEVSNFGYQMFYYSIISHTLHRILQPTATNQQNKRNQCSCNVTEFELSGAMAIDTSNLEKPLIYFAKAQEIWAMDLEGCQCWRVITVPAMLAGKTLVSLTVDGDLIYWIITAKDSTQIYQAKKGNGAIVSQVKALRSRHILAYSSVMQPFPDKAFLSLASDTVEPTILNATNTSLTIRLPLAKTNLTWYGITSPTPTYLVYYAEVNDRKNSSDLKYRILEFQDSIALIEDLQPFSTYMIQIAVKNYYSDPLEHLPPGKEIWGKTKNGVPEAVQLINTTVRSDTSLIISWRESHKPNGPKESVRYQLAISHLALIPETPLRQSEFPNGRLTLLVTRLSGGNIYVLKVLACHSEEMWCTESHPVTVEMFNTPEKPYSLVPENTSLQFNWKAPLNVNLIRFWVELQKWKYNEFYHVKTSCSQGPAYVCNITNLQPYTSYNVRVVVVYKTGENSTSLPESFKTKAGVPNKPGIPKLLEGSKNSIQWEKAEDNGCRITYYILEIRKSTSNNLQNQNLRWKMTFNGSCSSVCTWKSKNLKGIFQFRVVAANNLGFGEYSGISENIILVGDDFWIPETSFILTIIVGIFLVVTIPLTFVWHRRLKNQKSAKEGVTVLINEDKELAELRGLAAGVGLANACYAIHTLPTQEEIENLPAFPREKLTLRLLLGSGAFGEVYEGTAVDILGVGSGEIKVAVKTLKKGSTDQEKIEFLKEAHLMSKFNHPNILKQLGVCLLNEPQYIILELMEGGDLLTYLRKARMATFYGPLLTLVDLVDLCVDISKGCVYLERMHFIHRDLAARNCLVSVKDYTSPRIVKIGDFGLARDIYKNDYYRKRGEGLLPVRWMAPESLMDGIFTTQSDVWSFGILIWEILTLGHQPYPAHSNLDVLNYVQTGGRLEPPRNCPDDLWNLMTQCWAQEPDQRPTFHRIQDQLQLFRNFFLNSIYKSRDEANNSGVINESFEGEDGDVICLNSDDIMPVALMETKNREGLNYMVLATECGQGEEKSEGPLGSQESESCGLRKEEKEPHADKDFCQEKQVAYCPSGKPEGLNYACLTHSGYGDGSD

Row | SMILES | Kd [1] [µM] | Kd [2] [µM] | Kd [3] [µM] | Kd [4] [µM] | Kd (Wee1-like protein kinase) [µM] | Kd [5] [µM] | Kd [6] [µM] | Kd [7] [µM] | Kd [8] [µM] | Kd [9] [µM] | Kd [10] [µM] | Kd [11] [µM] | Kd [12] [µM] | Kd [13] [µM] | Kd [14] [µM] | Kd [15] [µM] | Kd [16] [µM]
1 | COCC(=O)NC/C=C/c1ccc2ncnc(Nc3ccc(Oc4ccc(C)nc4)c(C)c3)c2c1 [CP-724714] | > 10 | > 10 | > 10 | > 10 | > 10 | > 10 | > 10 | > 10 | > 10 | > 10 | > 10 | > 10 | > 10 | > 10 | > 10 | > 10 | 
2 | NC(=O)c1ccc(-c2nc(-c3ccc4c(c3)OCO4)c(-c3ccccn3)[nH]2)cc1 [SB-431542] | > 10 | > 10 | > 10 | > 10 | > 10 | > 10 | > 10 | > 10 | > 10 | > 10 | > 10 | > 10 | > 10 | > 10 | > 10 | > 10 | > 10
3 | Nc1nc(Nc2ccc(S(N)(=O)=O)cc2)nn1C(=O)c1c(F)cccc1F [JNJ-7706621] | > 10 | > 10 |  |  | > 10 | > 10 | 0.13 | > 10 | > 10 |  |  |  | > 10 | > 10 |  |  | > 10
4 | CCOc1cc2ncc(C#N)c(Nc3ccc(F)c(Cl)c3)c2cc1NC(=O)/C=C/CN(C)C [PELITINIB] | > 10 | > 10 | > 10 | 4.9 |  |  |  |  | > 10 | 2.1 |  | > 10 | > 10 |  |  | 1.8 | 0.5
5 | CCN1CCN(Cc2ccc(NC(=O)Nc3ccc(Oc4cc(NC)ncn4)cc3)cc2C(F)(F)F)CC1 [AST-487] |  |  |  |  |  |  | > 10 |  |  | > 10 |  |  |  |  |  |  | 
6 | Oc1ccc(-c2nc(-c3ccncc3)c(-c3ccc(F)cc3)[nH]2)cc1 [SB-202190] | > 10 | > 10 | > 10 | > 10 | > 10 | > 10 | > 10 | > 10 | > 10 | > 10 | > 10 | > 10 | > 10 | > 10 | > 10 | > 10 | > 10
